These results are taken from US11566007B2, “Ras inhibitors” (Revolution Medicines, Inc., priority 2019, dated 2023).

In assay [1] the test system is NCI-H358 (K-Ras G12C). Nature of the assay: CellTiter-Glo cell viability assay, NCI-H358. The note with it: class symbols. Type of assay: cell-based, human. The method, boiled down:
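Compounds were dispensed directly onto K-Ras mutant cells and incubated until day 5, then plates were equilibrated to room temperature for about 30 minutes before CellTiter-Glo luminescence. Signals were normalized as (sample/average DMSO)*100 and fitted by four-parameter logistic fit.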

The target of assay [2] is KRAS G12D (Homo sapiens (Human), UniProt P01116+P62937, G12D). Briefly: Ras-Raf (BRAF RBD) disruption / FRET / MOA assay, KRAS G12D. In kind it is biochemical. Particulars: Ras-Raf disruption/FRET/MOA assay; class symbols; read-out: KRAS G12D FRET data IC50. A digest of the protocol:
(§1)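 Compounds, top final concentration 30 μM in 10-point 3-fold series, incubated 3 hours at 25° C with nucleotide-loaded Ras, cyclophilin A and BRAF RBD.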

For assay [3], the target named is KRAS G12V (Homo sapiens (Human), UniProt P01116+P62937, G12V). Briefly: Ras-Raf (BRAF RBD) disruption / FRET / MOA assay, KRAS G12V. In kind it is biochemical. Particulars: read-out: IC50* KRAS G12V FRET data. The method, boiled down:
as §1

The target in assay [4] is KRAS G13D (Homo sapiens (Human), UniProt P01116+P62937, G13D). Briefly: Ras-Raf (BRAF RBD) disruption / FRET / MOA assay, KRAS G13D. In kind it is biochemical. The note with it: read-out: IC50* KRAS G13D FRET data. A digest of the protocol:
as §1

Assay [5] addresses K-Ras G13C (Homo sapiens (Human), UniProt P01116+P62937, G13C). Briefly: Ras-Raf (BRAF RBD) disruption / FRET / MOA assay, KRAS G13C. Type of assay: biochemical. The note with it: KRAS G13C; Ras-Raf disruption/FRET/MOA assay; read-out: IC50* KRAS G13C FRET data. The method, boiled down: as §1
The target of assay [6] is KRAS G12S (Homo sapiens (Human), UniProt P01116+P62937, G12S). Nature of the assay: Ras-Raf (BRAF RBD) disruption / FRET / MOA assay, KRAS G12S. Particulars: Ras-Raf disruption/FRET/MOA assay; class symbols; read-out: KRAS G12S FRET data IC50. Type of assay: biochemical. A digest of the protocol:
as §1

Assay [7] deals with K-Ras G12C (Homo sapiens (Human), UniProt P01116+P62937, G12C). Nature of the assay: Ras-Raf (BRAF RBD) disruption / FRET / MOA assay, KRAS G12C. Type of assay: biochemical. The note with it: KRAS G12C; Ras-Raf disruption/FRET/MOA assay; read-out: IC50* KRAS G12C FRET data. A digest of the protocol: as §1
Chain of K-Ras G12C (P01116-2 other isoform, or with tags, fused parts or gaps G12C): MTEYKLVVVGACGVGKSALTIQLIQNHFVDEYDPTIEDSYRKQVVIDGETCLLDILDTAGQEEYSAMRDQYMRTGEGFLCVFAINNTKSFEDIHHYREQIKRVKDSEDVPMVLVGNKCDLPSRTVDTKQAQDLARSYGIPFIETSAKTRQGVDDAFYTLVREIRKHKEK
Chain of K-Ras G12C (P62937 whole entry): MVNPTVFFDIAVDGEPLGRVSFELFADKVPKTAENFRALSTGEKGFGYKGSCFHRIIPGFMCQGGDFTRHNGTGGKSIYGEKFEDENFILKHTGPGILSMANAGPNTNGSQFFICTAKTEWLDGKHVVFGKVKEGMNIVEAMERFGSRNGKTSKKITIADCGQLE
The target in assay [8] is NRAS G12C (Homo sapiens (Human), UniProt P01111+P62937, G12C). Nature of the assay: Ras-Raf (BRAF RBD) disruption / FRET / MOA assay, NRAS G12C. The note with it: read-out: IC50* NRAS G12C FRET data. Type of assay: biochemical. The method, boiled down: as §1
Chain of NRAS G12C (P01111 whole entry G12C): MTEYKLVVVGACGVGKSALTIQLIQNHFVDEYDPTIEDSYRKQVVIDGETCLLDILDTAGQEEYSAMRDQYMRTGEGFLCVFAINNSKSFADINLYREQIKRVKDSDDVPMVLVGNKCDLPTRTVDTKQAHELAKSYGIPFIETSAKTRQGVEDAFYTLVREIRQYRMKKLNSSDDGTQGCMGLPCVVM
Chain of NRAS G12C (P62937 whole entry): as the sequence (P62937 whole entry) above
The subject of assay [9] is NCI-H358 cells (K-Ras G12C). Briefly: Potency assay: pERK in NCI-H358 cells. The note with it: Homo sapiens, NCI-H358; H358 KRAS G12C; read-out: pERK EC50. Type of assay: cell-based, human. A digest of the protocol:
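Inhibition of cellular pERK after a 4 h treatment, detected by AlphaLISA or In-Cell Western. IC50 from a four-parameter concentration-response fit.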

In assay [10] the target is KRAS WT (Homo sapiens (Human), UniProt P01116+P62937). Nature of the assay: Ras-Raf (BRAF RBD) disruption / FRET / MOA assay, KRAS WT. The note with it: read-out: IC50* KRAS WT FRET data. Type of assay: biochemical. A digest of the protocol:
as §1

[11] abbreviates: Homo sapiens, NCI-H358, 120 h, NCI-H358, 5-day treatment, read-out: Additional H358 Cell Viability assay data (K-Ras G12C, IC50).

Values joined by “and” are separate entries in the source; they are usually repeats but may differ in a detail not shown here. Equal values may be shown once. Read-outs that look alike come from different tables or passages of the source.

Chain of KRAS G12S (P01116-2 other isoform, or with tags, fused parts or gaps G12S): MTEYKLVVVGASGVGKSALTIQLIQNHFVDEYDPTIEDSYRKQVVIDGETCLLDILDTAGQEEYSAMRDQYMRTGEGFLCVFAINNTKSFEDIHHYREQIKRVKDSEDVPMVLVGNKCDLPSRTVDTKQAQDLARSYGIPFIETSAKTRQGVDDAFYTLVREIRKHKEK
Chain of KRAS G12S (P62937 whole entry): as the sequence (P62937 whole entry) above
Chain of K-Ras G13C (P01116-2 other isoform, or with tags, fused parts or gaps G13C): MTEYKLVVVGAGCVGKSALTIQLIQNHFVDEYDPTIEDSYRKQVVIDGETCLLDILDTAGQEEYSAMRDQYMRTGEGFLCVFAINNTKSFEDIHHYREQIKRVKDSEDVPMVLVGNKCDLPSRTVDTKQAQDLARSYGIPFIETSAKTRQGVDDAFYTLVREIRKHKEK
Chain of K-Ras G13C (P62937 whole entry): as the sequence (P62937 whole entry) above
Chain of KRAS G12V (P01116-2 other isoform, or with tags, fused parts or gaps G12V): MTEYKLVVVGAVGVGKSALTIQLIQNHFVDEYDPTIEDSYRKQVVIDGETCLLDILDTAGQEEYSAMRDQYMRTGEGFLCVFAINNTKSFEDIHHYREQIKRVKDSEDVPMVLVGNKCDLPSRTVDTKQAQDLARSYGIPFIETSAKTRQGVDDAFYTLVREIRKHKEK
Chain of KRAS G12V (P62937 whole entry): as the sequence (P62937 whole entry) above
Chain of KRAS G12D (P01116-2 other isoform, or with tags, fused parts or gaps G12D): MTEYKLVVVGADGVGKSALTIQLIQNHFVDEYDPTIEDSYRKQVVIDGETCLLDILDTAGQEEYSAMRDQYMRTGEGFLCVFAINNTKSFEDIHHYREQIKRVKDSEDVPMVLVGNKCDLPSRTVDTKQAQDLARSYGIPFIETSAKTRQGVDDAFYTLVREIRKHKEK
Chain of KRAS G12D (P62937 whole entry): as the sequence (P62937 whole entry) above
Chain of KRAS WT (P01116-2 other isoform, or with tags, fused parts or gaps): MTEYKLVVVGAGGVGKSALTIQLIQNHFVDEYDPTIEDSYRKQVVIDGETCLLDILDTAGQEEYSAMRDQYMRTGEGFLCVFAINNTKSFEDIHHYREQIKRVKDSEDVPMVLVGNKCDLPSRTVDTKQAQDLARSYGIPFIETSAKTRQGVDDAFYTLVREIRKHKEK
Chain of KRAS WT (P62937 whole entry): as the sequence (P62937 whole entry) above
Chain of KRAS G13D (P01116-2 other isoform, or with tags, fused parts or gaps G13D): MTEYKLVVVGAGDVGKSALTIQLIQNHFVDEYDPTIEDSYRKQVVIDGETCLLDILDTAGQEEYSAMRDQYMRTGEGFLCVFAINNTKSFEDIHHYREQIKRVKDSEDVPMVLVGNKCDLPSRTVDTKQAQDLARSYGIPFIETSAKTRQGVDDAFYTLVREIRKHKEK
Chain of KRAS G13D (P62937 whole entry): as the sequence (P62937 whole entry) above

Take `C=CC(=O)N(C)CC(=O)N(C)[C@H](C(=O)N[C@H]1Cc2cc(O)cc(c2)-c2ccc3c(c2)c(c(-c2cccnc2COC)n3CC)CC(C)(C)COC(=O)[C@@H]2CCCN(N2)C1=O)C(C)C` [Example A147]: the IC50 in [1] (setting [11]) fell in the range of 0.01 to 0.1 µM; in [2] it was 1 to 10 µM; in assay [3], 0.1 to 1 µM; in [4] it was 1 to 10 µM; in assay [5], 0.1 to 1 µM; in assay [6], 0.1 to 1 µM. Further, the half-maximal inhibitory concentration (IC50) in assay [7], in [8] and in assay [10] was 0.1 to 1 µM each time. In [9], the EC50 is below 5 µM.

Consider `C=CC(=O)N1C2CC1CN(C(=O)N(C)[C@H](C(=O)N[C@H]1Cc3nc(cs3)-c3ccc4c(c3)c(c(-c3cccnc3[C@H](C)OC)n4CC)CC(C)(C)COC(=O)[C@@H]3CCCN(N3)C1=O)C(C)C)C2` [Example A408], for which the IC50 in assay [1] (Homo sapiens, NCI-H358, 120 h, read-out: Additional H358 Cell Viability assay data (K-Ras G12C, IC50, uM), NCI-H358, 5-day treatment) lay within 0.01 to 0.1 µM; in assay [2] it was 1 to 10 µM; in assay [3] it was 0.1 to 1 µM; in assay [4], 1 to 10 µM; in assay [5] it was 0.1 to 1 µM; in assay [6], 0.1 to 1 µM. The half-maximal inhibitory concentration (IC50) in assay [7], in assay [8] and in assay [10] was 0.1 to 1 µM each time. Also, the EC50 in assay [9] was below 5 µM.

For the compound `CCn1c(-c2cccnc2[C@H](C)OC)c2c3cc(ccc31)-c1csc(n1)C[C@H](NC(=O)[C@H](C(C)C)N1CC[C@]3(CCN(C(=O)C#CC(C)(C)N(C)C)C3)C1=O)C(=O)N1CCC[C@H](N1)C(=O)OCC(C)(C)C2` (atropisomer, axis not shown) [Example A411], the IC50 in assay [1] (setting [11]) was below 0.01 µM; in assay [2] it was 1 to 10 µM; in [3] it was 1 to 10 µM; in assay [4], 1 to 10 µM; in [5] it was 0.1 to 1 µM; in assay [6] it was 1 to 10 µM. In addition, the IC50 was below 0.01 µM in [7], below 0.01 µM in [8] and 1 to 10 µM in assay [10]. In assay [9], the concentration giving a half-maximal response (EC50) was below 5 µM.

`CCn1c(-c2cncnc2C(C)C)c2c3cc(ccc31)-c1cc(O)cc(c1)C[C@H](NC(=O)[C@H](C(C)C)N(C)C(=O)[C@H]1CCN(C(=O)C#CCN(C)C)C1)C(=O)N1CCC[C@H](N1)C(=O)OCC(C)(C)C2` (atropisomer, axis not shown) [Example A155]: the IC50 in assay [1] (setting [11]) is 0.01 to 0.1 µM; in assay [1] (NCI-H358, 5-day treatment, read-out: Additional H358 Cell Viability assay data (K-Ras G12C, IC50)) it was below 0.01 µM; in assay [2] it was 1 to 10 µM and 0.1 to 1 µM; in [3] it was 0.1 to 1 µM and 0.01 to 0.1 µM; in [4] it was 1 to 10 µM and 0.01 to 0.1 µM; in assay [5], 0.01 to 0.1 µM and < 0.01 µM. In addition, the IC50 is 1 to 10 µM and 0.01 to 0.1 µM in assay [6]; 0.01 to 0.1 µM in assay [7]; 0.01 to 0.1 µM and < 0.01 µM in [8]; 1 to 10 µM and 0.01 to 0.1 µM in [10]. The concentration for a half-maximal effect (EC50) in [9] was below 5 µM.

Regarding `C=CC(=O)N1CC(C(=O)N(C)[C@H](C(=O)N[C@H]2Cc3cccc(c3)-c3ccc4c(c3)c(c(-c3cccnc3[C@H](C)OC)n4CC)CC(C)(C)COC(=O)[C@@H]3CCCN(N3)C2=O)C(C)C)C1` (atropisomer, axis not shown) [Example A467], the IC50 in [1] (setting [11]) was 0.01 to 0.1 µM; in [2], above 10 µM; in assay [3], above 10 µM; in assay [4], above 10 µM; in assay [5], 1 to 10 µM; in assay [6], above 10 µM. For the same compound, the values for the IC50 in assay [7], in assay [8] and in assay [10] were 1 to 10 µM, 0.1 to 1 µM and above 10 µM, respectively. For the same compound, the EC50 in [9] is below 5 µM.
